Assay results as given in patent EP0565593B1, “REDUCING PESTICIDAL INTERACTIONS IN CROPS” (priority 1990, dated 1992).
Several values for one entry are separate records, joined by “and”; a condition that tells them apart may be missing. Equal entries are not always repeated. Where two headings read alike, the source gives them in different places.

Assays:
[1] = system: Corn; assay: Greenhouse test Procedure VII: biocide and antidote in furrow, herbicide POE (Examples 39-42, 48-50, 56-58; Tables 38-41, 47-49, 55-57); assay type: in vivo
Procedure, shortened: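 Corn seed was planted in greenhouse pots, with COUNTER 15G insecticide plus antidote granules applied in-furrow (e.g. 1.1 + 0.37 mg a.i./cm, or 227 g/305 m with acetone-applied safeners). About five days later, herbicides in water with 0.25% v/v X-77 were track-sprayed post-emergence at 187 L/ha. Plant response was scored eight days afterward, with two to four replicates.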

[2] = system: Corn; details: for relieving corn injury, comparison: Example 29, COUNTER/PURSUIT negative synergy; for activity in reducing corn injury: primisulfuron POE + biocides PPI, Tables 8-10
[3] = system: Corn
[4] = COUNTER 15G + BEACON/co-herbicide combinations, Example 56
[5] = in-furrow antidote, COUNTER 15G + sulfonamide herbicides, Table 41
[6] = DIAZINON + Herbicides 1, 21, 18, Example 53
[7] = Antidote + Biocide No. 1 in furrow, Herbicide No. 1 0.14 Kg/Ha POE, 8 days after POE
[8] = Antidote + Biocide No. 1 in furrow, Herbicide No. 4 0.17 Kg/Ha POE, 8 days after POE
[9] = Antidote + Biocide No. 1 in furrow, Herbicide No. 5 0.07 Kg/Ha POE, 8 days after POE
[10] = Antidote + Biocide No. 1 in furrow, Herbicide No. 6 0.01 Kg/Ha POE
[11] = Antidote + Biocide No. 1 in furrow, Herbicide No. 7 0.56 Kg/Ha POE, 8 days after POE
[12] = Antidote + Biocide No. 1 in furrow, Herbicide No. 9 0.009 Kg/Ha POE
[13] = Antidote + Biocide No. 1 in furrow, Herbicide No. 10 0.002 Kg/Ha POE, 8 days after POE
[14] = Antidote + Biocide No. 1 in furrow, Herbicide No. 15 0.0044 Kg/Ha POE, 8 days after POE
[15] = Antidote + Biocide No. 1 in furrow, Herbicide No. 16 0.01 Kg/Ha POE
[16] = Antidote + Biocide No. 1 in furrow, Herbicide No. 18 0.0044 Kg/Ha POE
[17] = Antidote + Biocide No. 1 in furrow, Herbicide No. 19 0.28 Kg/Ha POE
[18] = Antidote + Biocide No. 1 in furrow, Herbicide No. 21 0.14 Kg/Ha POE
[19] = Antidote + Biocide No. 1 in furrow, Herbicide No. 23 0.0006 Kg/Ha POE
[20] = ACCENT POE + OP insecticides PPI, Tables 11-14
[21] = Antidote 4.48 + Biocide No. 1 8.96 Kg/Ha PPI, Herb. No. 8 0.07, 5 DAP, before herbicide application
[22] = Antidote 4.48 + Biocide No. 1 8.96 Kg/Ha PPI, Herb. No. 8 0.07 POE, 13 DAP
[23] = Antidote 4.48 + Biocide No. 1 8.96 Kg/Ha PPI, Herbicide No. 7 0.28 POE, 13 days after planting
[24] = Herb. […], 5 DAP, before herbicide application
[25] = Table 14: Herbicide No. 7 (ACCENT) 0.84 Kg/Ha POE + Biocide No. 2 8.96 Kg/Ha PPI + antidote 4.48 Kg/Ha PPI, 13 days after planting, 8 days after herbicide
[26] = […], 13 days after planting, 8 days after herbicide
[27] = […], observed 10 days after herbicide application
[28] = MON-12000 + OP insecticides, Examples 20-23
[29] = XRD-498 + OP insecticides, Examples 24-27
[30] = malathion + Herbicides 1, 21, 18, Example 54

## CC1(C)OC(c2ccco2)CN1C(=O)C(Cl)Cl (stereo not drawn) [Antidote No. 1, Oxazolidine, 3-(dichloroacetyl)-2,2-dimethyl-5-(2-furanyl)-]
[1]; [4]
  corn injury: reduced corn injury
[1]; COUNTER/ACCENT, 160 ratio, Example 50
  safening, comparison: more effective than MON-7400
[1]; [5]
  corn injury: significantly reduced
[2]; COUNTER with BEACON, PURSUIT (POE) or XRD-498 (PPI), Tables 29-37
  antidote activity: most active antidote
[2]
  relieving corn injury, comparison: more active than Antidote No. 28
[3]; [6]
  safening: Effective safening

## COC(=O)COC(c1ccccc1)c1ccccc1 [compound 12]
[1]; [7]
  % Inhibition Corn: 0%
[1]; [8]
  % Inhibition Corn: 0%
[1]; [9]
  % Inhibition Corn: 0%
[1]; [10]
  % Inhibition Corn: 0%
[1]; [11]
  % Inhibition Corn: 5%
[1]; [12]
  % Inhibition Corn: 0%
[1]; [13]
  % Inhibition Corn: 5%
[1]; [14]
  % Inhibition Corn: 0%
[1]; [15]
  % Inhibition Corn: 15%
[1]; [16]
  % Inhibition Corn: 10%
[1]; [17]
  % Inhibition Corn: 0%
[1]; [18]
  % Inhibition Corn: 5%
[1]; [19]
  % Inhibition Corn: 5%
[2]; [20]
  safener activity: most active
[2]; [21]
  % Inhibition 5 DAP Corn: 20%
[2]; [22]
  % Inhibition 13 DAP Corn: 15%
[2]; [23]
  % Inhibition Corn: 20%
[2]; [24]
  % Inhibition 5 DAP Corn: 0%
[2]; [25]
  % Inhibition Corn: 0%
[2]; [26]
  % Inhibition Corn: 0%
[2]; […], observed 8 days later (Table 32)
  % Inhibition Corn: 0%
[2]; […], observed 8 days later (Table 33)
  % Inhibition Corn: 40%
[2]; [27]
  % Inhibition Corn: 60%
[2]; in vivo
  % Inhibition 5 DAP Corn: 20%
  % Inhibition 13 DAP Corn: 20%
[2]
  activity in reducing corn injury: most active
[3]; [28]
  safening activity: Safening activity was observed
[3]; [29]
  safening activity: Safening activity was observed
[3]; […], PPI, 14 days after PPI (Table 34)
  % Inhibition Corn: 25%
[3]; in vivo
  reducing corn injury, comparison: superior to No. 28

## COC(=O)COC(c1ccccc1)c1ccccc1 [Antidote No. 12, Acetic acid, (diphenylmethoxy)-, methyl ester]
[1]; [4]
  corn injury: reduced corn injury
[1]; COUNTER 15G + sulfonamide herbicides POE, Table 41
  safening of corn injury: 92-100%
[1]; COUNTER 15G in furrow, POE sulfonylurea herbicides, Tables 38, 39
  safening effects: highest and most consistent safening effects
[1]; COUNTER + PURSUIT/co-herbicide tank mixtures, Example 58
  safener efficacy: most efficacious safener
[1]; imidazolinone herbicides + COUNTER 15G, Table 40
  antidote efficacy: most efficacious antidote
[1]; [5]
  corn injury: significantly reduced
[2]
  relieving corn injury, comparison: more active than Antidote No. 28
[3]; [6]
  safening: Effective safening
[3]; [30]
  safening: moderate to high degrees of safening

## COC(=O)c1c(Cl)nn(C)c1S(=O)(=O)NC(=O)Nc1nc(OC)cc(OC)n1 [Herbicide No. 1, N-[(4,6-dimethoxypyrimidin-2-yl)aminocarbonyl]-3-chloro-4-methoxycarbonyl-5-sulfonamide, reference compound]
[3]; Herb. […], PPI, 13 days after planting
  % Inhibition Corn: 70%
[3]; Herbicide No. 1 0.0175 Kg/Ha PPI alone, Table 19
  % Inhibition Corn: 5%
[3]; Herbicide No. 1 0.0175 Kg/Ha PPI alone, Table 20
  % Inhibition Corn: 0%
[3]; Herbicide No. 1 0.0175 Kg/Ha PPI alone, Table 21
  % Inhibition Corn: 0%
[3]; Herbicide No. 1 0.0175 Kg/Ha PPI alone, Table 22
  % Inhibition Corn: 0%
[3]; MON-12000 0.14 kg/ha with the OP insecticides at 8.96 kg/ha
  corn injury: 45-50%
[3]; MON-12000 0.14 kg/ha without insecticide, Examples 20-23
  corn injury: 0-5%
[3]; Table 53, Herbicide No. 1, rate printed as '-', where applied Biocide No. 7 8.96 kg/Ha and antidote 4.48 Kg/Ha, all PPI, observed 13 days after treatment
  % Inhibition Corn: 5%
[3]; Table 54, Herbicide No. 1, rate printed as '-', where applied Biocide No. 6 8.96 kg/Ha and antidote 4.48 Kg/Ha, all PPI, observed 14 days after PPI initiation
  % Inhibition Corn: 5%
[3]; in vivo
  % Inhibition Corn: 50% and 45%

## N#CCOc1ccc(Cl)c2cccnc12 [compound 33]
[1]; [7]
  % Inhibition Corn: 0%
[1]; [8]
  % Inhibition Corn: 5%
[1]; [9]
  % Inhibition Corn: 30%
[1]; [10]
  % Inhibition Corn: 20%
[1]; [11]
  % Inhibition Corn: 10%
[1]; [12]
  % Inhibition Corn: 5%
[1]; [13]
  % Inhibition Corn: 5%
[1]; [14]
  % Inhibition Corn: 15%
[1]; [15]
  % Inhibition Corn: 30%
[1]; [16]
  % Inhibition Corn: 10%
[1]; [17]
  % Inhibition Corn: 10%
[1]; [18]
  % Inhibition Corn: 20%
[1]; [19]
  % Inhibition Corn: 15%
[2]; [20]
  safener activity: most active
[2]; [21]
  % Inhibition 5 DAP Corn: 25%
[2]; [22]
  % Inhibition 13 DAP Corn: 20%
[2]; [23]
  % Inhibition Corn: 15%
[2]; [24]
  % Inhibition 5 DAP Corn: 0%
[2]; PURSUIT POE + insecticides PPI, Tables 15-18
  safener activity: most active
[2]; [25]
  % Inhibition Corn: 0%
[2]; [26]
  % Inhibition Corn: 10%
[2]; [27]
  % Inhibition Corn: 40%
[2]; in vivo
  % Inhibition 5 DAP Corn: 30%
  % Inhibition 13 DAP Corn: 20%
  effect on corn before application of the herbicide: Some injury
[2]
  activity in reducing corn injury: most active
[3]; [28]
  safening activity: Safening activity was observed
[3]; [29]
  safening activity: Safening activity was observed
[3]; [30]
  safening: moderate to high degrees of safening

## CC1(C)OC(c2ccco2)CN1C(=O)C(Cl)Cl (stereo not drawn) [compound 1]
[1]; [7]
  % Inhibition Corn: 15%
[1]; [8]
  % Inhibition Corn: 10%
[1]; [9]
  % Inhibition Corn: 15%
[1]; [10]
  % Inhibition Corn: 15%
[1]; [11]
  % Inhibition Corn: 10%
[1]; [12]
  % Inhibition Corn: 10%
[1]; [13]
  % Inhibition Corn: 15%
[1]; [14]
  % Inhibition Corn: 10%
[1]; [15]
  % Inhibition Corn: 20%
[1]; [16]
  % Inhibition Corn: 15%
[1]; [17]
  % Inhibition Corn: 20%
[1]; [18]
  % Inhibition Corn: 20%
[1]; [19]
  % Inhibition Corn: 20%
[1]; C (COUNTER) + antidote in furrow, C:A Ratio 20, ACCENT 0.56 Kg/Ha POE
  % Inhibition Corn: 10%
[1]; C (COUNTER) + antidote in furrow, C:A Ratio 20, BEACON 0.28 Kg/Ha POE
  % Inhibition Corn: 5%
[1]; C (COUNTER) + antidote in furrow, C:A Ratio 40, ACCENT 0.56 Kg/Ha POE
  % Inhibition Corn: 10%
[1]; C (COUNTER) + antidote in furrow, C:A Ratio 40, BEACON 0.28 Kg/Ha POE
  % Inhibition Corn: 5%
[1]; C (COUNTER) + antidote in furrow, C:A Ratio 80, ACCENT 0.56 Kg/Ha POE
  % Inhibition Corn: 10%
[1]; C (COUNTER) + antidote in furrow, C:A Ratio 80, BEACON 0.28 Kg/Ha POE
  % Inhibition Corn: 10%
[1]; C (COUNTER) + antidote in furrow, C:A Ratio 160, ACCENT 0.56 Kg/Ha POE
  % Inhibition Corn: 15%
[1]; C (COUNTER) + antidote in furrow, C:A Ratio 160, BEACON 0.28 Kg/Ha POE
  % Inhibition Corn: 15%
[1]; Herbicide No. 1 0.14 Kg/Ha POE + Biocide No. 1 in furrow, no antidote, 8 days after POE
  % Inhibition Corn: 35%
[1]; Herbicide No. 1 0.14 Kg/Ha POE alone, 8 days after POE
  % Inhibition Corn: 0%
[1]; Herbicide No. 8 0.28 Kg/Ha POE + COUNTER 15G 227 g/305 m + antidote in furrow, C:A ratio 5
  % Corn Inhibition C:A Ratios 5: 3%
[1]; Herbicide No. 8 0.28 Kg/Ha POE + COUNTER 15G 227 g/305 m + antidote in furrow, C:A ratio 10
  % Corn Inhibition C:A Ratios 10: 3%
[1]; Herbicide No. 8 0.28 Kg/Ha POE + COUNTER 15G 227 g/305 m + antidote in furrow, C:A ratio 20
  % Corn Inhibition C:A Ratios 20: 0%
[1]; Herbicide No. 8 0.28 Kg/Ha POE + COUNTER 15G 227 g/305 m + antidote in furrow, C:A ratio 40
  % Corn Inhibition C:A Ratios 40: 0%
[1]; Herbicide No. 8 0.28 Kg/Ha POE + COUNTER 15G 227 g/305 m + antidote in furrow, C:A ratio 80
  % Corn Inhibition C:A Ratios 80: 3%
[1]; Herbicide No. 8 0.28 Kg/Ha POE + COUNTER 15G 227 g/305 m + antidote in furrow, C:A ratio 160
  % Corn Inhibition C:A Ratios 160: 13%
[2]; [20]
  safener activity: most active
[2]; [21]
  % Inhibition 5 DAP Corn: 10%
[2]; [22]
  % Inhibition 13 DAP Corn: 25%
[2]; [23]
  % Inhibition Corn: 20%
[2]; [24]
  % Inhibition 5 DAP Corn: 0%
[2]; [25]
  % Inhibition Corn: 5%
[2]; [26]
  % Inhibition Corn: 5%
[2]; […], observed 9 days later (Table 29)
  % Inhibition Corn: 10%
[2]; […], observed 9 days later (Table 30)
  % Inhibition Corn: 35%
[2]; [27]
  % Inhibition Corn: 55%
[2]; in vivo
  % Inhibition 5 DAP Corn: 30%
  % Inhibition 13 DAP Corn: 20%
[2]
  activity in reducing corn injury: most active
[3]; [29]
  safening activity: Safening activity was observed
[3]; […], PPI, 13 days after PPI (Table 31)
  % Inhibition Corn: 25%
[3]; in vivo
  reducing corn injury, comparison: superior to No. 28
